Measured values taken from paper PMC12516686, “Design of 2‑Aminobenzothiazole Derivatives Targeting Trypanosomatid PTR1 by a Multidisciplinary Fragment Hybridization Approach” (Journal of Medicinal Chemistry, 2025).
Read-outs that look alike come from different tables or passages of the source.

Key:
[1] = molecular target: T1, CYP1A2 (Homo sapiens, UniProt P05177); assay: Cytochrome P450 assay (P450-Glo), isoform 1A2; format: in vitro ADME
T1 construct: purchased Promega; host or cells: baculovirus-infected insect cells
T1 sequence (P05177 1-516): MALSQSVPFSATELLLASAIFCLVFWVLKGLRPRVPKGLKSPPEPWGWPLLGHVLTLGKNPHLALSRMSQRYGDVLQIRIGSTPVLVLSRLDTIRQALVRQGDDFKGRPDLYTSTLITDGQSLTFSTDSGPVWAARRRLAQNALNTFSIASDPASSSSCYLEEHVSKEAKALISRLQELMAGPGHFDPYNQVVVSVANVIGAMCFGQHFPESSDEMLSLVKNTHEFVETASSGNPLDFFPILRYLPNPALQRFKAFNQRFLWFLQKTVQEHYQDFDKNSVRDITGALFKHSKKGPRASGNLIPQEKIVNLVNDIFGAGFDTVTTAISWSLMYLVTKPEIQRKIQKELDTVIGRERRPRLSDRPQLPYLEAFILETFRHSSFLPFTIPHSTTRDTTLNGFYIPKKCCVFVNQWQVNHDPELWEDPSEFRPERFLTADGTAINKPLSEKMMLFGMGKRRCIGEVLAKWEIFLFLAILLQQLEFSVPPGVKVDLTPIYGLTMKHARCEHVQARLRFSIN
Excerpt: (§1) 3A4. The Promega P450-Glo assay platform was used with microsomal preparations of
(§2) cytochrome P450s from baculovirus-infected insect cells. […]

[2] = Cytotoxicity assay (MTT) on THP-1-derived macrophages; format: cell-based, Human; details: human, THP-1-derived macrophages
Experimental: Human leukemia cell line THP-1 (ATCC TIB202) cells were cultured in RPMI-1640 medium supplemented with 10% heat-inactivated fetal bovine serum (FBS), 2 mM L-glutamine, 100 IU/mL penicillin/streptomycin, and 20 mM HEPES. The cell line was maintained in a humidified incubator at 37 °C with 5% CO2. Subcultures were performed every 3 days in 20 mL of media at a concentration of 2 × 10^5 cells/mL in a T75 flask. All cell culture reagents were purchased from Lonza Bioscience (Morrisville, NC).
The cytotoxicity of the compounds on THP-1-derived macrophages was assessed using the colorimetric MTT assay (3-(4,5-dimethylthiazol-2-yl)-2,5-diphenyl tetrazolium bromide) as described elsewhere. THP-1 cells were suspended in RPMI complete medium at a density of 1 × 10^6 cells/mL, and 100 μL/well was seeded in a 96-well plate. The cells were differentiated into macrophages by adding 40 ng/mL of phorbol-myristate 13-acetate (PMA, Sigma, Saint Louis, MI, USA) for 24 h, followed by replacement with fresh medium for another 24 h. Subsequently, the cells were incubated with 100 μL of compounds, ranging from 100 to 12.5 μM, diluted in RPMI complete medium. Each condition was tested in triplicate. After 72 h of incubation at 37 °C with 5% CO2, the medium was removed, and 200 μL of 0.5 mg/mL MTT solution diluted in RPMI was added. The plates were incubated for an additional 4 h, after which 160 μL of the media was removed and replaced with 160 μL of 2-propanol. Absorbance was read at 570 nm using a Synergy 2 Multi-Mode Reader (Biotek, Winooski, VT, USA). Cytotoxicity was evaluated by presenting the CC50 (the concentration of the drug that reduces cell viability by 50%) interval or by determining the CC50 value through nonlinear regression analysis using GraphPad Prism version 8.1.1 for Windows (GraphPad Software, San Diego, CA, USA). Results represent the average of at least three independent experiments.

[3] = molecular target: T2, CYP3A4 (Homo sapiens, UniProt P08684); assay: Cytochrome P450 assay (P450-Glo), isoform 3A4; format: in vitro ADME
T2 construct: purchased Promega; host or cells: baculovirus-infected insect cells
T2 sequence (P08684 whole entry, canonical isoform): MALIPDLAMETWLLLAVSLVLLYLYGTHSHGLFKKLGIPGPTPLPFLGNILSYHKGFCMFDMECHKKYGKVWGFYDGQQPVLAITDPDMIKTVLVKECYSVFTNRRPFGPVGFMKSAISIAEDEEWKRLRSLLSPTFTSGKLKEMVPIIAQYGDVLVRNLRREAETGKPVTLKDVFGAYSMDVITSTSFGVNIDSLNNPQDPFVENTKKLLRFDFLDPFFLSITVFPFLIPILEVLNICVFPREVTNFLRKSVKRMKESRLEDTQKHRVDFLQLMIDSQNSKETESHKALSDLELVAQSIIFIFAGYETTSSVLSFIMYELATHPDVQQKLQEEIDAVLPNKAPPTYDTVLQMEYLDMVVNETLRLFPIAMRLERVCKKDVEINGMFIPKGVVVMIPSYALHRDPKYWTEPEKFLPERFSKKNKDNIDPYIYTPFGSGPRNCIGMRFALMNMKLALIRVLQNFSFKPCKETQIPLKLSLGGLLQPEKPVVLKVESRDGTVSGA
Excerpt: as §1, §2

[4] = molecular target: T3, hERG (Homo sapiens, UniProt Q12809); assay: hERG liability assay
T3 construct: purchased Invitrogen
T3 sequence (Q12809 whole entry): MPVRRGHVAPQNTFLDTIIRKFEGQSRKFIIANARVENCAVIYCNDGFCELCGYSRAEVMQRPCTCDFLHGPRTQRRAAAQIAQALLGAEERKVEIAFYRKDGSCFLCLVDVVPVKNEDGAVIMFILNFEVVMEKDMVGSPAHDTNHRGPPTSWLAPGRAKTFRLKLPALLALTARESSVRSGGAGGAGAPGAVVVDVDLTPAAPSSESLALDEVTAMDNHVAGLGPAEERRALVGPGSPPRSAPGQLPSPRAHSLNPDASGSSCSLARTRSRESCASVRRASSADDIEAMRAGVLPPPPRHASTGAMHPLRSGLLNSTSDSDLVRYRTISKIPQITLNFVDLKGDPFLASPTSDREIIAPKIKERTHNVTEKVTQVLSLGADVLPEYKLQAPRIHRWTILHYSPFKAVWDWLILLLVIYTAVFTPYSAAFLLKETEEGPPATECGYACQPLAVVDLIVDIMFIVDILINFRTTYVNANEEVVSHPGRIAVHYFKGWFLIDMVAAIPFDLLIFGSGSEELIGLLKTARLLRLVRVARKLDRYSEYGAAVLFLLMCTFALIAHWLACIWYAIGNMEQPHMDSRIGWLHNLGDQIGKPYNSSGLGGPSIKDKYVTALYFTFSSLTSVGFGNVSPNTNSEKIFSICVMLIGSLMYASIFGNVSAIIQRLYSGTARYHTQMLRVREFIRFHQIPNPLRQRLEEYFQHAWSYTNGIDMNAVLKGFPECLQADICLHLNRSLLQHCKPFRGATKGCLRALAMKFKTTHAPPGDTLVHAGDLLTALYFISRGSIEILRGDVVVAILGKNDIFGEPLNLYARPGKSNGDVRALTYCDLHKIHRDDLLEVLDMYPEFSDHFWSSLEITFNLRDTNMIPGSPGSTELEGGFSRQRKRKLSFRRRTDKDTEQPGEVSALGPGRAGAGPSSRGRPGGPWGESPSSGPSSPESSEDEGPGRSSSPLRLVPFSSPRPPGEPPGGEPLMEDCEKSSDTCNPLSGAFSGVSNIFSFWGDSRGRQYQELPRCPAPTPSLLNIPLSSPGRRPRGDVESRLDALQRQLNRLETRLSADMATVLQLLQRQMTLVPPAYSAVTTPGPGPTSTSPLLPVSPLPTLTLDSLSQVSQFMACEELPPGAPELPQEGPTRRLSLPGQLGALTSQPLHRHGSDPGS

[5] = tested on: A549 cells; assay: Cytotoxicity against A549 cells (CellTiter-Glo); format: cell-based
Experimental: (§3) Cytotoxicity against A549 cells. The CellTiter-Glo assay from Promega was used. It detects the cellular ATP content, which is directly proportional to the number of viable cells. The A549 cells were obtained from DSMZ (German Collection of Microorganisms and Cell Cultures, Braunschweig, Germany) and cultured in Dulbecco’s modified Eagle medium (DMEM) with FCS (10% v/v), streptomycin (100 µg/mL), and penicillin G (100 U/mL)23. […]

[6] = Cytotoxicity against A549 cells (CellTiter-Glo); format: cell-based; details: human, A549 cells; for GI50: read-out: A549 cytotoxicity GI50 (50% growth inhibition)
Experimental: as §3

[7] = tested on: 786-O cell line; assay: Mitochondrial toxicity (MitoTracker Red uptake, high content imaging); format: cell-based; details: for IC50: read-out: mitotox. IC50
Excerpt: Mitochondrial toxicity caused by the synthesized compounds. Uptake of Mito-
Tracker Red (chloromethyl-X-rosamine) to the 786-O cell line was detected with high content
imaging. […]

[8] = lower limit of CC50 interval, read-out: THP1 CC50 lower limit
[9] = upper limit of CC50 interval, read-out: THP1 CC50 upper limit
[10] = cytotoxic concentration for THP1 cells, read-out: CC50 THP1

SMILES	CYP 1A2 IC50 [1]	CC50 at 72 h [2, 8] [µM]	CC50 at 72 h [2, 9] [µM]	IC50 ([3]; read-out: CYP 3A4 IC50) [µM]	hERG IC50 [4]	A549 cytotoxicity LC50 (50% lethal concentration) [5]	A549 cytotoxicity TGI (total growth inhibition) [5]	GI50 [6] [µM]	IC50 ([7]; Homo sapiens, 786-0) [µM]	CC50 at 72 h [2, 10] [µM]	IC50 [4] [µM]	mitotox. IC50 [7]	also measured
Nc1nc2ccc(C(=O)NCCc3ccc(Cl)c(Cl)c3)cc2s1 [Compound 1a, 2-amino-N-(3,4-dichlorophenethyl)benzo[d]thiazole-6-carboxamide]	max	> 50	< 100	1	max	max	54.4 µM	27	27.9	–	–	–	–
Nc1nc2ccc(C(=O)N(CCc3ccc(Cl)c(Cl)c3)C3CC3)cc2s1 [Compound 1b, 2-amino-N-cyclopropyl-N-(3,4-dichlorophenethyl)benzo[d]thiazole-6-carboxamide]	max	> 25	< 50	0.7	max	max	54.6 µM	13.8	0.6	25 to 50	–	–	–
Nc1nc2ccc(C(=O)N(Cc3ccc(Cl)c(Cl)c3)C3CC3)cc2s1 [Compound 1c, 2-amino-N-cyclopropyl-N-(3,4-dichlorobenzyl)benzo[d]thiazole-6-carboxamide]	max	–	–	1.3	max	–	61.3 µM	24.6	3.8	> 100	–	–	LC50 (50% lethal concentration) [6]: 100 µM
Nc1nc2ccc(CN(Cc3ccc(Cl)c(Cl)c3)C3CC3)cc2s1 [Compound 1d, 6-((cyclopropyl(3,4-dichlorobenzyl)amino)methyl)benzo[_d_]thiazol-2-amine]	–	> 25	< 50	4	max	–	34.4 µM	12.6	1.5	25 to 50	–	–	IC50 [1]: 67.1 µM; LC50 (50% lethal concentration) [6]: 63.1 µM
Nc1nc2ccc(C(=O)N(CCc3ccc(Cl)c(Cl)c3)c3ccccc3)cc2s1 [Compound 1e, 2-amino-N-(3,4-dichlorophenethyl)-N-phenylbenzo[d]thiazole-6-carboxamide]	–	–	–	–	–	–	–	–	–	> 100	–	–	activity at 10 µM ([1]; human, at 10 µM compound concentration, read-out: CYP 1A2 % residual activity): 37.7%; activity at 10 µM ([3]; human, at 10 µM compound concentration, read-out: CYP 3A4 % residual activity): 26.3%; activity at 10 µM ([4]; human, at 10 µM compound concentration, read-out: hERG % residual activity): -34.8%; activity at 10 µM ([5]; Homo sapiens, A549, at 10 µM compound concentration, printed in GI50 column, read-out: A549 % residual activity): 103%; activity at 10 µM ([7]; Homo sapiens, 786-0, at 10 µM compound concentration, read-out: mitotox. % residual activity): -33.8%
Nc1nc2ccc(C(=O)NCCc3ccccc3)cc2s1 [Compound 2a, 2-amino-N-phenethylbenzo[d]thiazole-6-carboxamide]	–	–	–	19.9	significant blocking of hERG channels	max	max	–	–	> 100	4.5	max	IC50 [1]: 100 µM; A549 cytotoxicity GI50 (50% growth inhibition) [5]: max
Nc1nc2ccc(C(=O)NCCc3cccc(Cl)c3)cc2s1 [Compound 2b, 2-amino-N-(3-chlorophenethyl)benzo[d]thiazole-6-carboxamide]	max	> 50	< 100	–	–	max	95.9 µM	54.5	–	–	2.8	max	IC50 [3]: 6.5 µM
Nc1nc2ccc(C(=O)NCCc3ccc(Cl)cc3)cc2s1 [Compound 2c, 2-amino-N-(4-chlorophenethyl)benzo[d]thiazole-6-carboxamide]	max	> 50	< 100	–	–	max	max	–	40	–	4.5	–	CYP 3A4 IC50 [3]: max; A549 cytotoxicity GI50 (50% growth inhibition) [5]: max
Nc1nc2ccc(C(=O)NCCc3cccc(Br)c3)cc2s1 [Compound 2d, 2-amino-N-(3-bromophenethyl)benzo[d]thiazole-6-carboxamide]	max	> 50	< 100	5.4	–	max	85.5 µM	60.4	–	–	3.2	max	–
Nc1nc2ccc(C(=O)NCCc3ccc(Br)cc3)cc2s1 [Compound 2e, 2-amino-N-(4-bromophenethyl)benzo[d]thiazole-6-carboxamide]	max	> 25	< 50	4.7	–	max	max	–	0.2	–	3.2	mitotoxic	A549 cytotoxicity GI50 (50% growth inhibition) [5]: max
Nc1nc2ccccc2n1Cc1ccc(Cl)c(Cl)c1 [I, 1-(3,4-dichlorobenzyl)-1H-benzimidazol-2-amine, reference compound]	–	–	–	3.1	–	–	–	–	38.6	8	0.85	–	IC50 [1]: 29.9 µM
